Tested on: human skin
Test: mechanical testing of skin sample sites with a tensiometer (elastic modulus, peak load)
Details: fully treated (full thickness needling + 0.1% Rose Bengal in saline + green light LED array) vs untreated and needled-only skin
Description: Additionally, mechanical testing was performed on sample sites using a tensiometer to measure elastic modulus before and after treatment. The elastic modulus and peak load were recorded on samples that were (1) untreated (2) partially treated (needled only), and (3) fully treated (needled plus agent application and irradiation). Full treatment included full thickness needling of the skin surface followed by application of a 0.1% solution of Rose Bengal in saline and irradiation with a multi-light-emitting LED diode array that delivered green light to the sample surface.

O=C([O-])c1c(Cl)c(Cl)c(Cl)c(Cl)c1-c1c2cc(I)c(=O)c(I)c-2oc2c(I)c([O-])c(I)cc12.[Na+].[Na+] [Rose Bengal]
increase in peak load: three-fold
increase in the elastic modulus: five-fold

— US11883680B2, “Method and apparatus for tightening skin and other tissues” (The General Hospital Corporation, priority 2016, dated 2024)
